Measured values as given in PubChem BioAssay (NCI).
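How tested: cells in 96-well plates exposed to compound for 48 hours at five concentrations. GI50 = concentration required for 50% inhibition of growth. TGI is the concentration that stops growth completely.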

Legend:
Test in all cases: inhibition of tumour cell growth, NCI panel, 48 h
MDA-MB-435 = test system: MDA-MB-435
HS 578T breast = test system: HS 578T breast
DU-145 prostate = test system: DU-145 prostate
T-47D breast = test system: T-47D breast
KM20L2 colon = test system: KM20L2 colon
DMS 114 small cell lung = test system: DMS 114 small cell lung
DMS 273 small cell lung = test system: DMS 273 small cell lung
SNB-78 CNS = test system: SNB-78 CNS
DLD-1 colon = test system: DLD-1 colon
XF 498 CNS = test system: XF 498 CNS

Compound	GI50 (MDA-MB-435) [µM]	TGI (MDA-MB-435) [µM]	GI50 (HS 578T breast) [µM]	TGI (HS 578T breast) [µM]	GI50 (DU-145 prostate) [µM]	TGI (DU-145 prostate) [µM]	GI50 (T-47D breast) [µM]	TGI (T-47D breast) [µM]	TGI (KM20L2 colon) [µM]	TGI (DMS 114 small cell lung) [µM]	TGI (DMS 273 small cell lung) [µM]	TGI (SNB-78 CNS) [µM]	TGI (DLD-1 colon) [µM]	TGI (XF 498 CNS) [µM]	GI50 (KM20L2 colon) [µM]	GI50 (DMS 114 small cell lung) [µM]	GI50 (XF 498 CNS) [µM]	GI50 (DLD-1 colon) [µM]
Oc1cc(Cl)ccc1Oc1ccc(Cl)cc1Cl	2.86	9.24	4.54	42.6	4.61	16.3	3.03	9.94										
COC(=O)[C@@H]1CCCN1C(=O)[C@@H]1CCCN1C(=O)[C@@H](Cc1c[nH]c2ccccc12)NC(=S)Nc1cc(C(F)(F)F)cc(C(F)(F)F)c1	2.44	6.8	7.81	> 100	14.6	> 100	2.91	9.5										
CC(C)(Br)C(=O)/C=C/c1ccccc1		22.2		> 60.3		22.9		> 52										
O=C(Nc1cc(Cl)c(Cl)cc1Cl)C(=O)C(C(=O)c1ccc(Cl)c(Cl)c1)C1OC(=O)c2ccccc21 (configuration not stated)									33	39.5	44.5	> 100	23.4					
Cc1ccc2c(c1)ncn2-c1ncnc2c1CC(C)c1ccccc1N2C (configuration not stated)			0.104	51	0.244	15.6	2.17	8.53										
O=C(Nc1ccc2c(c1)oc(=O)c1ccccc12)C(Cl)Cl		> 100		> 100		> 100		> 100										
Cc1c(C)c2ccc(OC/C=C3\CCC(=O)O3)cc2oc1=O	17.1	34.6	20.2	55.9	12.2	26.1	14.5	47.8										
Nc1nc(Nc2cccc(F)c2)nc2ccccc12	16.8	36.6	20	58	37.3	> 100	15.6	63										
O=c1oc2ccc(Cl)cc2c(=O)n1-c1ccc(I)cc1F	0.271	3.86	0.161	1.11	0.436	> 49.5	0.152	1.11										
C=C(C)CCC(C)N1CCC(N2CCC(C(=O)NCCc3ccccc3)CC2)CC1 (configuration not stated)	14	28.5	20.4	61.8	> 100	> 100	13.4	> 100										
CCN1C(=O)N(CC)C2C1NN=c1s/c(=C3\C(=O)N(C)c4ccccc43)c(=O)n12 (configuration not stated)	0.221	0.663	0.542	> 39.9	2.16	> 100	0.632	> 100										
C[C@H](CS(C)(=O)=O)Nc1ncc2cc(Oc3ccc(F)cc3F)c(=O)n(C)c2n1	> 25	> 25	> 25	> 25	> 25	> 25	> 25	> 25										
Clc1ccc2nc(Oc3ccccc3)cnc2c1	> 100	> 100	> 100	> 100	> 100	> 100	> 100	> 100										
Fc1ccc(Nc2nccc(-c3c(-c4ccc(C(F)(F)F)cc4)nn4ncccc34)n2)cc1F	> 25	> 25	> 25	> 25	> 25	> 25	> 25	> 25										
Fc1ccc(Nc2nc(NCCNc3ccnc4cc(Cl)ccc34)nc(N3CCOCC3)n2)cc1	2.22	5.38	7.32	28.9	8.68	21.1	10.9	27.4										
O=[N+]([O-])c1ccc(CS(=O)Cc2ccccc2)cc1 (configuration not stated)		> 100		> 100		> 100		> 100										
S=c1ssc(Sc2ccccn2)c1Cl	16.8	31.5			6.52	20.2	17	34.6										
O=c1[nH]cnc2c(C3OC(CO)C(O)C3O)scc12 (configuration not stated)	> 100	> 100	> 100	> 100	5.47	> 100	> 100	> 100										
CC(=O)NC(CCCN(Cc1ccccc1)C(=O)N(CCCl)N=O)C(=O)NCc1ccccc1 (configuration not stated)									> 100	> 100	> 100	> 100	> 100	> 60.4				
CN(C)c1ccc(N=Nc2c([O-])ccc3ccccc23)cc1.[C-]#[O+].[C-]#[O+].[Ir]	18.8	46.1	19.3	70.9					59	36			47.8	33.3	26	20.6	17	22.5
FC(F)(F)c1ccc2nc(Nc3ccc(Cl)c(Cl)c3)c(-c3ccccc3)nc2c1									> 100		> 100	> 100		> 100				
CCc1c[nH]c2ncnc(N3CC[C@@](N)(CNC(=O)c4ccc(F)cc4F)C3)c12	33.5	> 100	18.2	75.2	42.2	> 100	30.8	> 100										
CCc1c2c(nc3cccc(N)c13)-c1cc3c(c(=O)n1C2)COC(=O)[C@]3(O)CC	0.0349	1.54		> 100	0.00161	> 100		> 100										
COc1cc2cc(Oc3ccc(NC(=O)c4ccc(Cl)c(C(F)(F)F)c4)cc3)c(C)nc2cc1OC	14.7	> 100	16.6	64	26.2	> 100	5.69	99.6										
CCOC(=O)c1cnn(-c2ccnc3c(C(F)(F)F)cccc23)c1N	> 100	> 100	24.8	> 100	> 100	> 100	> 100	> 100										
